≈ marks a conversion by molar mass, not a printed value. Where two headings read alike, the source gives them in different places.
Legend:
Staph. aureus Smith = experiment: In vivo activity (oral, iv; ED50) against Staph. aureus Smith in mice
S. pneumoniae+ GC 4465 = experiment: MIC, broth microdilution; conditions: Streptococcus pneumoniae
E. coli GC 4560 = experiment: MIC, broth microdilution; conditions: Escherichia coli
E. faecalis GC 4555 = experiment: MIC, broth microdilution; conditions: Enterococcus faecalis
E. coli GC 2235 = experiment: MIC, broth microdilution; conditions: Escherichia coli
E. coli GC 1073 = experiment: MIC, broth microdilution; conditions: Escherichia coli
S. aureus GC 4536 = experiment: MIC, broth microdilution; conditions: Staphylococcus aureus
E. coli GC 4559 = experiment: MIC, broth microdilution; conditions: Escherichia coli
S. agalactiae GC 4564 = experiment: MIC, broth microdilution; conditions: Streptococcus agalactiae
S. aureus GC 1079 = experiment: MIC, broth microdilution; conditions: Staphylococcus aureus
S. aureus GC 1131 = experiment: MIC, broth microdilution; conditions: Staphylococcus aureus
S. typhimurium GC 2172 = experiment: MIC, broth microdilution; conditions: Salmonella enterica, TYPHIMURIUM
S. pneumoniae* GC 4465 = experiment: MIC, broth microdilution; conditions: Streptococcus pneumoniae
S. aureus GC 6467 = experiment: MIC, broth microdilution; conditions: Staphylococcus aureus
E. faecalis GC 2267 = experiment: MIC, broth microdilution; conditions: Enterococcus faecalis
E. faecalis GC 2242 = experiment: MIC, broth microdilution; conditions: Enterococcus faecalis
E. coli GC 6465 = experiment: MIC, broth microdilution; conditions: Escherichia coli
S. epidermidis GC 4935 = experiment: MIC, broth microdilution; conditions: Staphylococcus epidermidis
E. coli GC 2272 = experiment: MIC, broth microdilution; conditions: Escherichia coli
c. albicans GC 3066 = experiment: MIC, broth microdilution
[1] = read-out: MINIMAL INHIBITORY CONCENTRATION MIC, Human Serum
[2] = read-out: MINIMAL INHIBITORY CONCENTRATION MIC, Mouse Serum
[3] = read-out: MINIMAL INHIBITORY CONCENTRATION MIC, Water

MIC (S. pneumoniae+ GC 4465; [1]): 1 µg/mL (≈ 1.34 µM) | MIC (S. pneumoniae+ GC 4465; [2]): 2 µg/mL (≈ 2.69 µM) | MIC (S. pneumoniae+ GC 4465; [3]): 2 µg/mL (≈ 2.69 µM) | MIC (E. coli GC 4560; GC4560, read-out: MINIMAL INHIBITORY CONCENTRATION MIC, Human Serum): 2 µg/mL (≈ 2.69 µM) | MIC (E. coli GC 4560; GC4560, read-out: MINIMAL INHIBITORY CONCENTRATION MIC, Mouse Serum): 0.5 µg/mL (≈ 0.672 µM) | MIC (E. coli GC 4560; GC4560, read-out: MINIMAL INHIBITORY CONCENTRATION MIC, Water): 2 µg/mL (≈ 2.69 µM) | MIC (E. faecalis GC 4555; GC4555, read-out: MINIMAL INHIBITORY CONCENTRATION MIC, Human Serum): 2 µg/mL (≈ 2.69 µM) | MIC (E. faecalis GC 4555; GC4555, read-out: MINIMAL INHIBITORY CONCENTRATION MIC, Mouse Serum): 0.5 µg/mL (≈ 0.672 µM) | MIC (E. faecalis GC 4555; GC4555, read-out: MINIMAL INHIBITORY CONCENTRATION MIC, Water): 2 µg/mL (≈ 2.69 µM) | MIC (E. coli GC 2235; GC2235, read-out: MINIMAL INHIBITORY CONCENTRATION MIC, Human Serum): 8 µg/mL (≈ 10.8 µM) | MIC (E. coli GC 2235; GC2235, read-out: MINIMAL INHIBITORY CONCENTRATION MIC, Mouse Serum): 0.5 µg/mL (≈ 0.672 µM) | MIC (E. coli GC 2235; GC2235, read-out: MINIMAL INHIBITORY CONCENTRATION MIC, Water): 32 µg/mL (≈ 43 µM) | MIC (E. coli GC 1073; GC1073, read-out: MINIMAL INHIBITORY CONCENTRATION MIC, Human Serum): 16 µg/mL (≈ 21.5 µM) | MIC (E. coli GC 1073; GC1073, read-out: MINIMAL INHIBITORY CONCENTRATION MIC, Mouse Serum): 1 µg/mL (≈ 1.34 µM) | MIC (E. coli GC 1073; GC1073, read-out: MINIMAL INHIBITORY CONCENTRATION MIC, Water): 32 µg/mL (≈ 43 µM) | MIC (S. aureus GC 4536; GC4536, read-out: MINIMAL INHIBITORY CONCENTRATION MIC, Human Serum): 0.5 µg/mL (≈ 0.672 µM) | MIC (S. aureus GC 4536; GC4536, read-out: MINIMAL INHIBITORY CONCENTRATION MIC, Mouse Serum): 0.25 µg/mL (≈ 0.336 µM) | MIC (S. aureus GC 4536; GC4536, read-out: MINIMAL INHIBITORY CONCENTRATION MIC, Water): 1 µg/mL (≈ 1.34 µM) | MIC (E. coli GC 4559; GC4559, read-out: MINIMAL INHIBITORY CONCENTRATION MIC, Human Serum): 16 µg/mL (≈ 21.5 µM) | MIC (E. coli GC 4559; GC4559, read-out: MINIMAL INHIBITORY CONCENTRATION MIC, Mouse Serum): 1 µg/mL (≈ 1.34 µM) | MIC (E. coli GC 4559; GC4559, read-out: MINIMAL INHIBITORY CONCENTRATION MIC, Water): 32 µg/mL (≈ 43 µM) | MIC (S. agalactiae GC 4564; GC4564, read-out: MINIMAL INHIBITORY CONCENTRATION MIC, Human Serum): 0.5 µg/mL (≈ 0.672 µM) | MIC (S. agalactiae GC 4564; GC4564, read-out: MINIMAL INHIBITORY CONCENTRATION MIC, Mouse Serum): < 0.06 µg/mL | MIC (S. agalactiae GC 4564; GC4564, read-out: MINIMAL INHIBITORY CONCENTRATION MIC, Water): 0.5 µg/mL (≈ 0.672 µM) | MIC (S. aureus GC 1079; GC1079, read-out: MINIMAL INHIBITORY CONCENTRATION MIC, Human Serum): 0.5 µg/mL (≈ 0.672 µM) | MIC (S. aureus GC 1079; GC1079, read-out: MINIMAL INHIBITORY CONCENTRATION MIC, Mouse Serum): 0.5 µg/mL (≈ 0.672 µM) | MIC (S. aureus GC 1079; GC1079, read-out: MINIMAL INHIBITORY CONCENTRATION MIC, Water): 1 µg/mL (≈ 1.34 µM) | MIC (S. aureus GC 1131; GC1131, read-out: MINIMAL INHIBITORY CONCENTRATION MIC, Human Serum): 1 µg/mL (≈ 1.34 µM) | MIC (S. aureus GC 1131; GC1131, read-out: MINIMAL INHIBITORY CONCENTRATION MIC, Mouse Serum): 1 µg/mL (≈ 1.34 µM) | MIC (S. aureus GC 1131; GC1131, read-out: MINIMAL INHIBITORY CONCENTRATION MIC, Water): 1 µg/mL (≈ 1.34 µM) | MIC (S. typhimurium GC 2172; [1]): 64 µg/mL (≈ 86 µM) | MIC (S. typhimurium GC 2172; [2]): 4 µg/mL (≈ 5.38 µM) | MIC (S. typhimurium GC 2172; [3]): > 64 µg/mL | MIC (S. pneumoniae* GC 4465; [1]): 0.25 µg/mL (≈ 0.336 µM) | MIC (S. pneumoniae* GC 4465; [2]): 0.12 µg/mL (≈ 0.161 µM) | MIC (S. pneumoniae* GC 4465; [3]): 0.12 µg/mL (≈ 0.161 µM) | MIC (S. aureus GC 6467; GC6467, read-out: MINIMAL INHIBITORY CONCENTRATION MIC, Human Serum): 1 µg/mL (≈ 1.34 µM) | MIC (S. aureus GC 6467; GC6467, read-out: MINIMAL INHIBITORY CONCENTRATION MIC, Mouse Serum): 1 µg/mL (≈ 1.34 µM) | MIC (S. aureus GC 6467; GC6467, read-out: MINIMAL INHIBITORY CONCENTRATION MIC, Water): 2 µg/mL (≈ 2.69 µM) | MIC (E. faecalis GC 2267; GC2267, read-out: MINIMAL INHIBITORY CONCENTRATION MIC, Human Serum): 2 µg/mL (≈ 2.69 µM) | MIC (E. faecalis GC 2267; GC2267, read-out: MINIMAL INHIBITORY CONCENTRATION MIC, Mouse Serum): 0.5 µg/mL (≈ 0.672 µM) | MIC (E. faecalis GC 2267; GC2267, read-out: MINIMAL INHIBITORY CONCENTRATION MIC, Water): 4 µg/mL (≈ 5.38 µM) | MIC (E. faecalis GC 2242; GC2242, read-out: MINIMAL INHIBITORY CONCENTRATION MIC, Human Serum): 2 µg/mL (≈ 2.69 µM) | MIC (E. faecalis GC 2242; GC2242, read-out: MINIMAL INHIBITORY CONCENTRATION MIC, Mouse Serum): 0.5 µg/mL (≈ 0.672 µM) | MIC (E. faecalis GC 2242; GC2242, read-out: MINIMAL INHIBITORY CONCENTRATION MIC, Water): 2 µg/mL (≈ 2.69 µM) | MIC (E. coli GC 6465; GC6465, read-out: MINIMAL INHIBITORY CONCENTRATION MIC, Human Serum): 32 µg/mL (≈ 43 µM) | MIC (E. coli GC 6465; GC6465, read-out: MINIMAL INHIBITORY CONCENTRATION MIC, Mouse Serum): 4 µg/mL (≈ 5.38 µM) | MIC (E. coli GC 6465; GC6465, read-out: MINIMAL INHIBITORY CONCENTRATION MIC, Water): > 64 µg/mL | MIC (S. epidermidis GC 4935; GC4935, read-out: MINIMAL INHIBITORY CONCENTRATION MIC, Human Serum): 2 µg/mL (≈ 2.69 µM) | MIC (S. epidermidis GC 4935; GC4935, read-out: MINIMAL INHIBITORY CONCENTRATION MIC, Mouse Serum): 1 µg/mL (≈ 1.34 µM) | MIC (S. epidermidis GC 4935; GC4935, read-out: MINIMAL INHIBITORY CONCENTRATION MIC, Water): 2 µg/mL (≈ 2.69 µM) | MIC (E. coli GC 2272; GC2272, read-out: MINIMAL INHIBITORY CONCENTRATION MIC, Human Serum): 8 µg/mL (≈ 10.8 µM) | MIC (E. coli GC 2272; GC2272, read-out: MINIMAL INHIBITORY CONCENTRATION MIC, Mouse Serum): 0.25 µg/mL (≈ 0.336 µM) | MIC (E. coli GC 2272; GC2272, read-out: MINIMAL INHIBITORY CONCENTRATION MIC, Water): 16 µg/mL (≈ 21.5 µM) | MIC (c. albicans GC 3066; Candida albicans, GC3066, read-out: MINIMAL INHIBITORY CONCENTRATION MIC): > 64 µg/mL | MINIMAL INHIBITORY CONCENTRATION MIC (c. albicans GC 3066; Human Serum): >64 UG/ML | MINIMAL INHIBITORY CONCENTRATION MIC (c. albicans GC 3066; Mouse Serum): >64 UG/ML
Compound: CC(C)CC(=O)OCOC(=O)N(CC(=O)Nc1cc(N(C)C)c2c(c1O)C(=O)C1=C(O)[C@]3(O)C(=O)C(C(N)=O)=C(O)[C@@H](N(C)C)[C@@H]3C[C@@H]1C2)C(C)(C)C [Example 53, ({[(2-{[(5aR,6aS,7S,10aS)-9-(aminocarbonyl)-4,7-bis(dimethylamino)-1,8,10a,11-tetrahydroxy-10,12-dioxo-5,5a,6,6a,7,10,10a,12-octahydrotetracen-2-yl]amino}-2-oxoethyl)(tert-butyl)amino]carbonyl}oxy)methyl 3-methylbutanoate]
ED50 (Staph. aureus Smith; Staphylococcus aureus, in Mus musculus, iv, read-out: ED50 SIV (Staph aureus Smith)): 0.73 mg/kg | ED50 (Staph. aureus Smith; Staphylococcus aureus, in Mus musculus, po, read-out: ED50 SOD (Staph aureus Smith)): 5.08 mg/kg | ED50 (Staph. aureus Smith; Staphylococcus aureus, in Mus musculus, po, read-out: ED50 Staph Smith SOD): 5.08 mg/kg | ED50 (Staph. aureus Smith; iv, read-out: ED50 Staph Smith SIV): 0.73 mg/kg

Source: patent US20070049564A1 (Wyeth, priority 2005, published 2007)
